Paper PMC11096148 (EJNMMI Radiopharmacy and Chemistry, 2024)
Values joined by “and” are separate entries in the source; they are usually repeats but may differ in a detail not shown here. Equal values may be shown once.

Columns and labels:
[1] = Stability in human blood serum; type: in vitro ADME; conditions: for Serum stability: human blood serum
Procedure: (§1) A detailed synthetic procedure for preparation of NODAGA-TriGalactan including analytical data as well as a complete list of all reagents can be found in the supplementary information. Protocols for determination of logD, protein binding and stability studies have been described elsewhere (Hörmann et al. [2020]).
(§2) Binding to the ASGR was quantified in an assay with freshly isolated mouse hepatocytes using the ^natGa-complex of NODAGA-TriGalactan. Hepatocytes were seeded in a 24-well plate and competitive binding against [^125I]I-asialorosomucoid (ASOR) was studied.

Stability in PBS = type: physicochemical
Procedure: as §1, §2

plasma protein = test: Protein binding; type: in vitro ADME
Procedure: as §1, §2

mouse hepatic organoids = test: Organoid uptake assay and fluorescence imaging; type: cell-based; conditions: 1 h at 37 °C
Procedure: For blocking, the experiment was conducted in presence of 10 mM GalNAc. At the end of the incubation time, cells were put on ice for 1 min and spun down (300 rcf, 5 min, 4 °C). The supernatant was carefully removed and organoids were washed twice with 200 µL of ice-cold PBS. Internalized activity was released by treating the organoids with 200 µL of 1 M NaOH for 10 min. Lysates were transferred into scintillation vials and the activity content was measured in a γ-counter. Organoid uptake was determined as the percentage of total radioactivity added.
For microscopic studies organoids were incubated with 333 nM BP-Fluor-647-TriGalactan for 1 h at 37 °C. Cells were pelleted, washed once with PBS and fixated by addition of 200 µL of fixation buffer (BD Cytofix/Cytoperm™, Fisher Scientific, Hampton, USA). After 1 h at room temperature, cells were washed again with PBS and incubated in 100 µL of perm/wash-buffer (Biozym, Hessisch Oldendorf, Germany) for another 30 min. For counter staining organoids were incubated over night at 4 °C with 30 µL of a mixture of 2 µM Hoechst 33,342 (Thermo Scientific), 165 nM Phalloidin CruzFluor™ 555 (Santa Cruz, Dallas, Texas, USA) and Anti-ASGR1 AF488-coupled antibody (2 µg/mL, Bio-Techne, Dublin, Ireland). The next day, organoids were centrifuged, washed three times with PBS and transferred to a CellCarrier-96 Ultra Microplate (PerkinElmer). The Operetta CLS system (revvity, Hamburg, Germany) was used to image the samples. Analysis was performed using the Harmony software 4.9.
Mouse hepatic organoids (Stemcell Technologies, Vancouver, Canada) were cultivated in HepatiCult® organoid growth medium supplemented with 1 % Penicillin/Streptomycin + l-Glutamine (Thermofisher Scientific, Waltham, Massachussetts, USA) embedded in a Geltrex^TM (Thermofisher Scientific) LDEV-free reduced growth factor basement membrane matrix. Medium was replaced every 3-4 days and organoids were passaged every 7-10 days. For passaging, matrix domes were mechanically disrupted and the cell suspension was transferred into a 15 mL falcon tube. […]

[2] = Biodistribution studies in healthy BALB/c mice; type: in vivo
Procedure: For biodistribution studies 6 week old female BALB/c mice (n = 3, Charles Rivers Laboratories, Sulzfeld, Germany) were injected with 0.1 nmol (100 µL, approx. 1 MBq) of ^68Ga-labelled compound via the lateral tail vein and sacrificed by cervical dislocation 10, 30, or 60 min post injection (p.i.). The mice were dissected, blood and organs were weighed and the activity of the samples measured in a γ-counter. For blocking experiments, mice were co-injected with 27.7 µmol of D-galactose.

[3] = Small animal dynamic PET/MR imaging, time activity curves; type: in vivo; conditions: C57BL/6J mice
Procedure: All animal experiments were performed according to the German animal welfare act and approved by the local authorities (R5/19). Male C57BL/6J mice were purchased from Janvier Lab (Saint-Berthevin Cedex, France) at 6 weeks. Mice were kept under 1.5% isoflurane in oxygen during the measurements (n = 3). Approximately 1 MBq of the radiotracer was injected intravenously per mouse and 1 h dynamic PET was performed with an Inveon microPET system (Inveon D-PET, Siemens, Knoxville, TN, USA). Mice were then transferred to a 7 Tesla BioSpec 70/30 USR (Bruker Biospin MRI GmbH, Ettlingen, Germany) and a 15 min MR anatomical scan using T2-weighted 3-dimensional turbo spin-echo sequence was acquired. An Inveon Acquisition Workplace was used to reconstruct the acquired images using ordered subset expectation maximization 3D (OSEM 3D) and framing the dynamics. The reconstructed image analysis was performed by using an Inveon Research Workplace. After co-registering acquired MR images with PET images, regions of interest (ROIs) were drawn on liver, heart, muscle, and kidney and time activity curves (TACs) were quantified.

[4] = biological target: T1, asialoglycoprotein receptor (ASGR) (Mus musculus, UniProt P24721+P34927); test: Competitive binding against [^125I]I-asialoorosomucoid on freshly isolated mouse hepatocytes; conditions: [^125I]I-asialoorosomucoid 5 nM, 1 hour on ice
T1 construct: endogenous in cells; host or cells: primary hepatocytes freshly isolated from C57BL/6 mice (collagenase perfusion)
T1 sequence (P34927 1-284): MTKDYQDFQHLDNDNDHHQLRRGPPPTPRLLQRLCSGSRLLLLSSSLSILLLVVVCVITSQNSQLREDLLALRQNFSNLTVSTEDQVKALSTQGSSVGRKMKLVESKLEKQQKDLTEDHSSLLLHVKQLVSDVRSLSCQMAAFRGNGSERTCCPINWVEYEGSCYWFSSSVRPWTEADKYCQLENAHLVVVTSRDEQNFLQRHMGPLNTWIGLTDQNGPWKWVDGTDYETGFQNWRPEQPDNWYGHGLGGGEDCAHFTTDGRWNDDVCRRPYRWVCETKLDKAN
T1 sequence (P24721 1-301): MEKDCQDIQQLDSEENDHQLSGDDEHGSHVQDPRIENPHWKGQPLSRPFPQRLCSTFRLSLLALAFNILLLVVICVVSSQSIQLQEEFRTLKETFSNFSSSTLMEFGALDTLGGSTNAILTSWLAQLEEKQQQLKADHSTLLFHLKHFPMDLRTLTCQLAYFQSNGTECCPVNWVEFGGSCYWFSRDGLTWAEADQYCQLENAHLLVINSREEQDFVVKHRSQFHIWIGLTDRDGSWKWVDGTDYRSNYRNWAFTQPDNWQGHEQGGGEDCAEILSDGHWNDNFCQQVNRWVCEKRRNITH
Procedure: Inhibitory constant (IC50) values were determined in triplicates using freshly isolated mouse hepatocytes (Seglen [1976]). […] In brief, cells were incubated in presence of [^125I]I-asialoorosomucoid (5 nM) with various ligand concentrations ranging from 10^− 5-10^− 11 M for 1 hour on ice. Cells were washed and cell bound activity was released by addition of 200 µL 1 M NaOH for 10 min. The activity content in the lysates was quantified in a γ-counter (2480 Wizard^2 3”, PerkinElmer, Waltham, Massachussetts, USA) and the values were plotted in excel. Fitting of the sigmoidal binding curve and the calculation of the IC50 value was done with excel’s solver plugin.
Binding to the ASGR was quantified in an assay with freshly isolated mouse hepatocytes using the ^natGa-complex of NODAGA-TriGalactan. Hepatocytes were seeded in a 24-well plate and competitive binding against [^125I]I-asialorosomucoid (ASOR) was studied. For comparison, the affinity of GSA for the receptor was also determined.
Isolation of murine hepatocytes followed the collagenase perfusion method published by Seglen [4]. Therefore, C57BL/6 mice were euthanized by cervical dislocation and subsequently the peritoneum was opened. […] Hepatocytes were resuspended in 20 – 30 mL of William’s E + Glutamaxx + 10 % FCS + 1 % Penicillin/Streptomycin (Gibco, Thermofisher Scientific) and counted, typically yielding 30 – 40 × 10^6 cells/animal. […]

[5] = 30 min p.i., blocking with 27.7 µmol D-galactose

O=C([O-])CN1CCN(CC(=O)[O-])CCN([C@H](CCC(=O)NCCCC(=O)NC(COCc2cn(CCOCCOCCO[C@@H]3O[C@H](CO)[C@H](O)[C@H](O)[C@H]3O)nn2)(COCc2cn(CCOCCOCCO[C@@H]3O[C@H](CO)[C@H](O)[C@H](O)[C@H]3O)nn2)COCc2cn(CCOCCOCCO[C@@H]3O[C@H](CO)[C@H](O)[C@H](O)[C@H]3O)nn2)C(=O)[O-])CC1.[68Ga+3] [[^68Ga]Ga-NODAGA-TriGalactan]
Serum stability ([1]; 2 min): 99.8 ± 0% | Serum stability ([1]; 30 min): 97.6 ± 2.3% | Serum stability ([1]; 60 min): 98.5 ± 1.2% | Serum stability ([1]; 120 min): 92.9 ± 4.6% | stability in human blood serum (intact tracer) ([1]; over the time course of 2 h): > 93% | PBS stability (Stability in PBS; 2 min): 99.8% | PBS stability (Stability in PBS; 30 min): 99.8% | PBS stability (Stability in PBS; 60 min): 99.8% | PBS stability (Stability in PBS; 120 min): 99.8% | stability in PBS (intact tracer) (Stability in PBS; over the time course of 2 h): > 99% | Protein binding (plasma protein; 2 min of incubation): 7.6 ± 3.9% | Protein binding (plasma protein; 30 min of incubation): 5.5 ± 0.5% | Protein binding (plasma protein; 60 min of incubation): 9.2 ± 0.2% | Protein binding (plasma protein; 120 min of incubation): 13.6 ± 3.2% | Cellular uptake on mouse hepatic organoids (mouse hepatic organoids; 0.3 nM tracer): decent degree of internalization | Cellular uptake with blocking on mouse hepatic organoids (mouse hepatic organoids; in presence of 10 mM GalNAc, p < 0.05): receptor specific interaction with the ASGR | Biodistribution Blood ([2]; 10 min p.i.): 3.3 ± 0.2 % ID/g | Biodistribution Femur ([2]; 10 min p.i.): 0.87 ± 0.52 % ID/g | Biodistribution Intestine ([2]; 10 min p.i.): 1.13 ± 0.07 % ID/g | Biodistribution Kidneys ([2]; 10 min p.i.): 8.2 ± 0.5 % ID/g and 8.15 ± 0.54 % ID/g | Biodistribution Liver ([2]; 10 min p.i.): 33.4 ± 0.9 % ID/g | Biodistribution Lung ([2]; 10 min p.i.): 2.14 ± 0.13 % ID/g | Biodistribution Muscle ([2]; 10 min p.i.): 0.77 ± 0.02 % ID/g | Biodistribution Pancreas ([2]; 10 min p.i.): 0.87 ± 0.12 % ID/g | Biodistribution Spleen ([2]; 10 min p.i.): 0.78 ± 0.05 % ID/g | Biodistribution Blood ([2]; 30 min p.i.): 0.89 ± 0.09 % ID/g | Biodistribution Femur ([2]; 30 min p.i.): 0.22 ± 0.02 % ID/g | Biodistribution Heart ([2]; 30 min p.i.): 0.40 ± 0.03 % ID/g | Biodistribution Intestine ([2]; 30 min p.i.): 1.95 ± 0.17 % ID/g | Biodistribution Kidneys ([2]; 30 min p.i.): 2.83 ± 0.18 % ID/g | Biodistribution Liver ([2]; 30 min p.i.): 32.2 ± 3.7 % ID/g | Biodistribution Lung ([2]; 30 min p.i.): 0.74 ± 0.03 % ID/g | Biodistribution Muscle ([2]; 30 min p.i.): 0.23 ± 0.03 % ID/g | Biodistribution Pancreas ([2]; 30 min p.i.): 0.31 ± 0.05 % ID/g | Biodistribution Spleen ([2]; 30 min p.i.): 0.27 ± 0.02 % ID/g | Biodistribution Stomach ([2]; 30 min p.i.): 1.05 ± 0.08 % ID/g | Biodistribution Blood [2, 5]: 1.19 ± 0.33 % ID/g | Biodistribution Femur [2, 5]: 0.37 ± 0.16 % ID/g | Biodistribution Heart [2, 5]: 0.44 ± 0.03 % ID/g | Biodistribution Intestine [2, 5]: 0.77 ± 0.19 % ID/g | Biodistribution Kidneys [2, 5]: 4.19 ± 0.29 % ID/g | Biodistribution Liver [2, 5]: 14.6 ± 0.15 % ID/g | Biodistribution Lung [2, 5]: 0.97 ± 0.04 % ID/g | Biodistribution Muscle [2, 5]: 0.43 ± 0.20 % ID/g | Biodistribution Pancreas [2, 5]: 0.45 ± 0.01 % ID/g | Biodistribution Spleen [2, 5]: 0.32 ± 0.03 % ID/g | Biodistribution Stomach [2, 5]: 0.68 ± 0.11 % ID/g | Biodistribution Blood ([2]; 60 min p.i.): 0.3 ± 0.04 % ID/g and 0.34 ± 0.04 % ID/g | Biodistribution Femur ([2]; 60 min p.i.): 0.26 ± 0.19 % ID/g | Biodistribution Heart ([2]; 60 min p.i.): 0.17 ± 0.00 % ID/g | Biodistribution Intestine ([2]; 60 min p.i.): 3.0 ± 0.4 % ID/g and 2.99 ± 0.43 % ID/g | Biodistribution Kidneys ([2]; 60 min p.i.): 1.51 ± 0.10 % ID/g | Biodistribution Liver ([2]; 60 min p.i.): 27.7 ± 3.1 % ID/g | Biodistribution Lung ([2]; 60 min p.i.): 0.38 ± 0.10 % ID/g | Biodistribution Muscle ([2]; 60 min p.i.): 0.17 ± 0.02 % ID/g | Biodistribution Pancreas ([2]; 60 min p.i.): 0.19 ± 0.09 % ID/g | Biodistribution Spleen ([2]; 60 min p.i.): 0.16 ± 0.02 % ID/g | Biodistribution Stomach ([2]; 60 min p.i.): 0.92 ± 0.04 % ID/g | Time of kidney activity peak, PET TAC [3]: ~1.5 min | Background muscle uptake, PET TAC ([3]; 1 h dynamic PET): less than 3 % ID/mL | Activity in the blood (measured in the heart), PET TAC ([3]; within the first three minutes): below 5 % ID/mL

CC1(CCCCCC(=O)NCCCC(=O)NC(COCc2cn(CCOCCOCCO[C@@H]3O[C@H](CO)[C@H](O)[C@H](O)[C@H]3O)nn2)(COCc2cn(CCOCCOCCO[C@@H]3O[C@H](CO)[C@H](O)[C@H](O)[C@H]3O)nn2)COCc2cn(CCOCCOCCO[C@@H]3O[C@H](CO)[C@H](O)[C@H](O)[C@H]3O)nn2)C(/C=C/C=C/C=C2/N(CCCS(=O)(=O)O)c3ccc(S(=O)(=O)O)cc3C2(C)C)=[N+](CCCS(=O)(=O)[O-])c2ccc(S(=O)(=O)O)cc21 (stereo partly drawn) [BP-Fluor-647-TriGalactan]
Fluorescence imaging of mouse hepatic organoids (mouse hepatic organoids; 333 nM, co-staining with anti-ASGR antibody): internalization of the trimer into the organoids

O=C([O-])CN1CCN(CC(=O)[O-])CCN([C@H](CCC(=O)NCCCC(=O)NC(COCc2cn(CCOCCOCCO[C@@H]3O[C@H](CO)[C@H](O)[C@H](O)[C@H]3O)nn2)(COCc2cn(CCOCCOCCO[C@@H]3O[C@H](CO)[C@H](O)[C@H](O)[C@H]3O)nn2)COCc2cn(CCOCCOCCO[C@@H]3O[C@H](CO)[C@H](O)[C@H](O)[C@H]3O)nn2)C(=O)[O-])CC1.[Ga+3] [[^natGa]Ga-NODAGA-TriGalactan]
IC50 [4]: 0.0732 ± 0.0675 µM
